The source of these data is patent US7517676B2, “Human cyclooxygenase-3 enzyme and uses thereof” (Janssen Pharmaceutica N.V., priority 2003, dated 2009).

The target of experiment [1] is T1, dog COX-3 (Canis lupus familiaris, UniProt Q8HZR1).
T1 sequence (Q8HZR1 1-633 isoform Q8HZR1-2): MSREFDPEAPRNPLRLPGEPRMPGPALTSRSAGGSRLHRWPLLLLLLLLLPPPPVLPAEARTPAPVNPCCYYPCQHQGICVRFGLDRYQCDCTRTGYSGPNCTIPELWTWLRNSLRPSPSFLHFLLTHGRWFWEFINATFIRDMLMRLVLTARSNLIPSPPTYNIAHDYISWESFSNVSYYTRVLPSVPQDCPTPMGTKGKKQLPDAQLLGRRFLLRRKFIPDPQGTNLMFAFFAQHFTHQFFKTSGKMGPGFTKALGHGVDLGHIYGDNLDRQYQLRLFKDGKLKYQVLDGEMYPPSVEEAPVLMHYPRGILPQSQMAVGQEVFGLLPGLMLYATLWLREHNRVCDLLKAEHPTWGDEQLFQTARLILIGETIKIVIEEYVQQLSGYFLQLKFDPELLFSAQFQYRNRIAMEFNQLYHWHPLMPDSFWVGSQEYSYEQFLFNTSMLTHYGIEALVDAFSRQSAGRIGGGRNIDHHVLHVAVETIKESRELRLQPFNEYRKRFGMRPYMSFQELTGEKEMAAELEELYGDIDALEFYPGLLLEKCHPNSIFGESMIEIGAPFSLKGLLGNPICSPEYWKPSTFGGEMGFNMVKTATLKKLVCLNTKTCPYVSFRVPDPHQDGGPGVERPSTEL
As to conditions: cited from earlier work.

In experiment [2] the test system is ovarian cancer. To be noted: women who reported taking acetaminophen daily; prospective study; cited from earlier work.
The target in experiment [3] is T2, human COX-3a (Homo sapiens, UniProt P23219).
T2 construct: the full length human COX-3a cDNA was subcloned into pFastBac; made in house; host or cells: Sf9 insect cells (baculovirus, pFastBac); microsomal fraction
As to the kind of experiment: COX activity assay: PGF2α formation from arachidonic acid by microsomes of Sf9 cells expressing hCOX-3a. To be noted: synthesis of PGF2α from arachidonic acid; 20 μg microsomal membrane protein, room temperature, 5 minutes, pH 8.0. Format: biochemical. The procedure: Microsomal protein fractions were prepared from Sf9 cells infected with the hCOX-3a recombinant baculovirus. Microsomal membrane protein (20 μg) was incubated with the indicated concentration of arachidonic acid in a volume of 150 μl buffer containing 0.1 M Tris-HCl (pH=8.0), 5 mM EDTA, 2 mM phenol and 1.5 μM […]. After incubating at room temperature for 5 minutes, the reaction was terminated by the addition of 40 μl of 1 N HCl with mixing. Samples were neutralized with 40 μl of 1 N NaOH. The formation of the PGF2α product was determined using a PGF2α immunoassay kit (Assay Designs, Inc.), as directed by the manufacturer.

Where [4] appears, read: substrate concentration of 5 mM.

What is called Km is the substrate concentration at which the rate is half of its maximum. One may read the Vmax as the rate approached at saturating substrate.

T2 sequence (P23219 1-630 isoform P23219-6): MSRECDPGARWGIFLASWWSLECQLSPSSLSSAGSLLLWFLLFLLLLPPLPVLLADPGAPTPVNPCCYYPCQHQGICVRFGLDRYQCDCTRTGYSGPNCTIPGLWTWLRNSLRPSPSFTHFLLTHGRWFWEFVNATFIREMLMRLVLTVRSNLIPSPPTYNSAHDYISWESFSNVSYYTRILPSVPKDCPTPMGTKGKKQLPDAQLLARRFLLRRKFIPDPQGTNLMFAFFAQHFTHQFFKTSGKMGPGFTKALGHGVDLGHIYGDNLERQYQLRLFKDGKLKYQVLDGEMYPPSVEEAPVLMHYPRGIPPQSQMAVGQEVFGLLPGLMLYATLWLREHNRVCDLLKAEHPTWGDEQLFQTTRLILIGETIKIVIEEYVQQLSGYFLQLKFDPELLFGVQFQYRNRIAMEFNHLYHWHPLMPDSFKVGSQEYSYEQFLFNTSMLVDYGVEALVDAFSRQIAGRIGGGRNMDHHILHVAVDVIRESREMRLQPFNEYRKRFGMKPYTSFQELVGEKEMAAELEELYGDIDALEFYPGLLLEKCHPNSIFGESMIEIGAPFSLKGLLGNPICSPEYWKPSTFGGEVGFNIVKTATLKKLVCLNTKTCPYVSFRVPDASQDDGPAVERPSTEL

As to `CC(=O)Nc1ccc(O)cc1` [acetaminophen], the “inhibition of dog COX-3 compared with murine COX-1 and -2” value in experiment [1] is on record as “selectively inhibited”. For the same compound, in experiment [1] (setting [4]), the “selectivity for inhibition of dog COX-3 versus murine COX-1” value is on record as 2 fold and the “selectivity for inhibition of dog COX-3 versus murine COX-2” value is on record as 100 fold. Further, the “lower death rate from ovarian cancer than women reporting no use” value in experiment [2] is reported as 45%.

For the compound `Cc1cc(=O)n(-c2ccccc2)n1C` [antipyrine], in experiment [1], the “inhibition of dog COX-3 compared with murine COX-1 and -2” value is on record as “selectively inhibited”.

With `CCCCC/C=C\C/C=C\C/C=C\C/C=C\CCCC(=O)O` [arachidonic acid], in experiment [3], the Michaelis constant (Km) amounted to 0.54 µM and the maximum rate (Vmax) is 3.07 pmol/mg/min.

For `Cc1c(N(C)CS(=O)(=O)[O-])c(=O)n(-c2ccccc2)n1C.[Na+]` [dipyrone], the “inhibition of dog COX-3 compared with murine COX-1 and -2” value in experiment [1] is “selectively inhibited”.

On to `CCOc1ccc(NC(C)=O)cc1` [phenacetin], for which, in experiment [1], the “inhibition of dog COX-3 compared with murine COX-1 and -2” value is “selectively inhibited”.
